Where two headings read alike, the source gives them in different places.
Assays:
BRM = target: T1, BRM (Homo sapiens, UniProt P51531); test: ATPase catalytic activity of BRM, ADP-Glo in vitro biochemical assay; settings: for IC50: 30 nM BRM, 400 μM ATP; for Ratio* (BRG1 IC50 (μM) divided by BRM IC50 (μM)): selectivity ratio BRG1 IC50 / BRM IC50
T1 construct: made in house; host or cells: High Five insect cells
How it was run: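 Recombinant BRM (30 nM) hydrolysed 400 μM ATP with 20 nM salmon sperm DNA in pH 8 Tris buffer containing 20 mM MgCl2, 50 mM NaCl, 0.1% Tween-20 and 1 mM DTT, 1 h at room temperature. ADP formed was quantified by ADP-Glo luminescence.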

BRG-1 = target: T2, BRG-1 (Homo sapiens, UniProt P51532); test: ATPase catalytic activity of BRG-1, ADP-Glo in vitro biochemical assay; settings: 30 nM BRG-1, 400 μM ATP, read-out: BRG1 IC50
T2 construct: made in house; host or cells: High Five insect cells
How it was run: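 BRG-1 ATPase activity was measured by ADP-Glo. Unconsumed ATP was depleted for 40 min at room temperature, then ADP was converted to ATP for 60 min and read as luminescence.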

[1] = ATPase catalytic activity, ADP-Glo

T2 sequence (P51532 whole entry): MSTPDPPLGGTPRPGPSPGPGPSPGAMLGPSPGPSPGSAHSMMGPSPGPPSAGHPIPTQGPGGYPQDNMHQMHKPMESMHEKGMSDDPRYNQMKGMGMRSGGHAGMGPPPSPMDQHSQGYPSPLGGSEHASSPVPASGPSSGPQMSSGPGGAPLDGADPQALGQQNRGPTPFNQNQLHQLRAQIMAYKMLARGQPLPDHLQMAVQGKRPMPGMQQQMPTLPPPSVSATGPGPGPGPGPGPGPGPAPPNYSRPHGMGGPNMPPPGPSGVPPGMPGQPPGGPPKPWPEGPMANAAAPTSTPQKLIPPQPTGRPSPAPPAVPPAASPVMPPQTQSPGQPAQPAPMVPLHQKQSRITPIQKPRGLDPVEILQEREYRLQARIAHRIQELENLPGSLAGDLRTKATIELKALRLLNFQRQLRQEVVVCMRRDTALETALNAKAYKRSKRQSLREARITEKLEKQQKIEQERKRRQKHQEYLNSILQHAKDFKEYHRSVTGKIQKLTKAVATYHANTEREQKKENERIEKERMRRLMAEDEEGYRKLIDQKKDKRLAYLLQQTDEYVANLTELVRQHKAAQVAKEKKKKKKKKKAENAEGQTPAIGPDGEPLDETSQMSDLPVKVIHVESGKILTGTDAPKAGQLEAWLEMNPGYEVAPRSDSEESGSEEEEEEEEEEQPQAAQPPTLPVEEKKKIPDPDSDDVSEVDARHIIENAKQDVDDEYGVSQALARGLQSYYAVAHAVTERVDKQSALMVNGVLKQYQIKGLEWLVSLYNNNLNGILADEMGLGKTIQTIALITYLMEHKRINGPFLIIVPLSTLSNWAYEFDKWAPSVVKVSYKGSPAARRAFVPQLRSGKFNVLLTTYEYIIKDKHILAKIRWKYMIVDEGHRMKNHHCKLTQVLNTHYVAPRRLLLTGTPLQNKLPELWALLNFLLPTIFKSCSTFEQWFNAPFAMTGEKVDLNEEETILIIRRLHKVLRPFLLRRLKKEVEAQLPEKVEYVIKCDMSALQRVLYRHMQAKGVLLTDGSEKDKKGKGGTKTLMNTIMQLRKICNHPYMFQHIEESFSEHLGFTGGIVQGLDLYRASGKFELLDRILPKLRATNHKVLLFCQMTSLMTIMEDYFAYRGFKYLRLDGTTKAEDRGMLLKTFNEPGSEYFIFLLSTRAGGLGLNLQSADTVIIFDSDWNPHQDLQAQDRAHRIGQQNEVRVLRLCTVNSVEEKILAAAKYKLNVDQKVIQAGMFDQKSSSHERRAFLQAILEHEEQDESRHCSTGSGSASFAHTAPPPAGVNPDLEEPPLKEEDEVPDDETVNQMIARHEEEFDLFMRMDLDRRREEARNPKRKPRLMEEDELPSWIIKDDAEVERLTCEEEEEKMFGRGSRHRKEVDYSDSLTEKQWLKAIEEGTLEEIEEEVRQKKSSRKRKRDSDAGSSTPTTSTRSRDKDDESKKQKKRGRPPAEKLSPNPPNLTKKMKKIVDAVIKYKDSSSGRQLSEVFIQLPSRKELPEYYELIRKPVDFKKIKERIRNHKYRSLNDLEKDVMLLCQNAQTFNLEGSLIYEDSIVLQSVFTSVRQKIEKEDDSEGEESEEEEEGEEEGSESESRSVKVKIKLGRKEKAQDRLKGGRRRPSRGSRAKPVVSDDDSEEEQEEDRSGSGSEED
T1 sequence (P51531 whole entry): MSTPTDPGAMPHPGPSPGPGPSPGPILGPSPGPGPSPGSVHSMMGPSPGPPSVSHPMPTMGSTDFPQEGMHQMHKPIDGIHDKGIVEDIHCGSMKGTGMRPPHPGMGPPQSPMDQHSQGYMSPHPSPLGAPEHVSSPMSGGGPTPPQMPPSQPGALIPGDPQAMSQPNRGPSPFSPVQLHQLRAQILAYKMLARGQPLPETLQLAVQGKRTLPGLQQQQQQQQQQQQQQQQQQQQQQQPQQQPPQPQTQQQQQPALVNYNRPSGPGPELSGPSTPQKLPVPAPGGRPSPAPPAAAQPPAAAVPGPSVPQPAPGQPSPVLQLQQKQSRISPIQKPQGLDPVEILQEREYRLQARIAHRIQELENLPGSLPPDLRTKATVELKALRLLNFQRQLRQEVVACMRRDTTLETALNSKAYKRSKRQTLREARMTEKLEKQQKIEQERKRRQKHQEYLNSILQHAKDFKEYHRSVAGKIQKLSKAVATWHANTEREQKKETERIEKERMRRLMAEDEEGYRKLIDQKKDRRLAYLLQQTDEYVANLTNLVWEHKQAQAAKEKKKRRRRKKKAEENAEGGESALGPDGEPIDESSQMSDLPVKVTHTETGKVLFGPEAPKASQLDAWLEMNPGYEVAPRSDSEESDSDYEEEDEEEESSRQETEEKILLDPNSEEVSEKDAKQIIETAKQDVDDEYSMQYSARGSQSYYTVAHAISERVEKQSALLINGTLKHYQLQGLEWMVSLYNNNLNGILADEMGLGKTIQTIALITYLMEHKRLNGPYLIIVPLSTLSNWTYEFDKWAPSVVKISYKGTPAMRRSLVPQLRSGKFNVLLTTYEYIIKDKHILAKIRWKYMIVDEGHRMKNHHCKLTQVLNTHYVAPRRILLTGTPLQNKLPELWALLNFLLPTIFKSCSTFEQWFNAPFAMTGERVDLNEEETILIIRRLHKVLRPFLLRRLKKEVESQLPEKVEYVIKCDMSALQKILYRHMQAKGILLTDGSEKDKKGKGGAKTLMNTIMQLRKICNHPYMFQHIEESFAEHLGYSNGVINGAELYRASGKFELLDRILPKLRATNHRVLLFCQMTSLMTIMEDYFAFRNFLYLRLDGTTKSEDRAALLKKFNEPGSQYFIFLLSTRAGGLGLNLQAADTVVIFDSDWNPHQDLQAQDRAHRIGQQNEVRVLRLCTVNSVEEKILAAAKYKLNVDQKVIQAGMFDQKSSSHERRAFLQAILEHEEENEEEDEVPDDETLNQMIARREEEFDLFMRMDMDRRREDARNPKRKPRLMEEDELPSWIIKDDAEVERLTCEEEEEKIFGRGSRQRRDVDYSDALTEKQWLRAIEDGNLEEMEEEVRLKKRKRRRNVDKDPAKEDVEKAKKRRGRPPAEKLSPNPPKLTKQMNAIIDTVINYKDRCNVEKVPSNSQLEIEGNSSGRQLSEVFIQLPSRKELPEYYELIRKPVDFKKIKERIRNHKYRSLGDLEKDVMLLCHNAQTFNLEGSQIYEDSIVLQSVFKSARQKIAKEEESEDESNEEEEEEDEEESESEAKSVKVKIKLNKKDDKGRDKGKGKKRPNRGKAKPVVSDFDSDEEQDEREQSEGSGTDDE

Structure (SMILES)	IC50 (BRM; ADP-Glo ATPase assay) [nM]	Ratio* (BRM; ratio BRG1 IC50 / BRM IC50)	IC50 (BRG-1; ADP-Glo ATPase assay) [nM]	Ratio* (BRG1 IC50 (μM) divided by BRM IC50 (μM)) (BRM)	IC50 (BRM; [1]) [nM]	Ratio* (BRM; ratio of BRG1 IC50 to BRM IC50)	IC50 (BRG-1; [1]) [nM]
COC[C@@H](C)N(C)c1cccc(-c2ccc3cnc(CNC(=O)c4ccc5c(c4)S(=O)(=O)CCOC5)cc3n2)n1 [Compound 72]	224		1230	5.48			
C[C@@H]1CN(c2cccc(-c3ccc4cnc(CNC(=O)c5cnc(C(F)F)c(S(C)(=O)=O)c5)cc4n3)n2)C[C@H](C)O1 [Compound 132]	12.5		204	16.30			
CN(C)S(=O)(=O)c1cc(C(=O)NCc2cc3nc(-c4cncc(C5CC5)n4)ccc3cn2)ccc1Cl [Compound 288]	197		3460	17.58			
O=C(NCc1cc2cc(-c3cccc(N4CCC4)n3)ccc2cn1)c1cnc2c(c1)S(=O)(=O)CCOC2 [Compound 256]	49		426	8.69			
O=C(NCc1cc2nc(N3CCOc4cccnc43)ccc2cn1)c1ccc2c(c1)S(=O)(=O)CCOC2 [Compound 367]					8.4	17.87	151
O=C(NCc1cc2nc(-c3cccc([C@H]4CC4(F)F)c3)ccc2cn1)c1ccc2c(c1)S(=O)(=O)CCOC2 [Compound 252]	75.3		1380	18.31			
CCOc1cccc(-c2ccc3cnc(CNC(=O)c4ccc5c(c4)S(=O)(=O)[C@@H](C)COC5)cc3n2)n1 [Compound 330]					11	43.09	473
O=C(NCc1cc2nc(-c3cccc(C4(CF)CC4)n3)ccc2cn1)c1ccc2c(c1)S(=O)(=O)CCOC2 [Compound 120]	44.7		469	10.48			
C[C@H]1COCc2ccc(C(=O)NCc3cc4nc(-c5cccc(C6CC6)n5)ccc4cn3)cc2S1(=O)=O [Compound 331]					13.5	30.98	418

Next, values leading:

IC50 (BRM; ADP-Glo ATPase assay) [nM]	Ratio* (BRM; ratio BRG1 IC50 / BRM IC50)	IC50 (BRG-1; ADP-Glo ATPase assay) [nM]	Ratio* (BRG1 IC50 (μM) divided by BRM IC50 (μM)) (BRM)	IC50 (BRM; [1]) [nM]	Ratio* (BRM; ratio of BRG1 IC50 to BRM IC50)	IC50 (BRG-1; [1]) [nM]	Structure (SMILES)
21.4	10.40	222					O=C(NCc1cc2nc(N3CCCc4c(N5CCC5)ccnc43)ccc2cn1)c1ccc2c(c1)S(=O)(=O)CCOC2 [Compound 814]
				102	15.25	1560	C[C@H]1COCc2ccc(C(=O)NCc3cc4nc(-c5ccnc([C@@H]6CC6(F)F)n5)ccc4cn3)cc2S1(=O)=O [Compound 465]
6.6	4.60	30.4					COCc1cc2c(c(F)c1Cl)N(c1ccc3cnc(CNC(=O)c4ccc5c(c4)S(=O)(=O)CCOC5)cc3n1)CCO2 [Compound 794]
79.7	12.03	959					COCc1cc2c(cn1)N(c1ccc3cnc(CNC(=O)c4ccc5c(c4)S(=O)(=O)CCOC5)cc3n1)CCC2 [Compound 821]
				25.9	15.92	411	CCOc1nc(-c2ccc3cnc(CNC(=O)c4ccc5c(c4)S(=O)(=O)[C@@H](C)COC5)cc3n2)ccc1F [Compound 497]
				213	10.41	2220	CO[C@H]1COc2c(-c3ccc4cnc(CNC(=O)c5ccc6c(c5)S(=O)(=O)CCOC6)cc4n3)cccc2N(C)C1 [Compound 613]
				28.7	15.87	456	O=C(NCc1cc2nc(-c3cccc(OCC4CC4(F)F)n3)ccc2cn1)c1ccc2c(c1)S(=O)(=O)CCOC2 (stereo not drawn) [Compound 391]
				18.4	31.86	587	C[C@H]1COCc2ccc(C(=O)NCc3cc4nc(-c5cccc(OC(F)(F)F)n5)ccc4cn3)cc2S1(=O)=O [Compound 388]
				54.5	10.07	549	O=C(NCc1cc2nc(-c3ccc4c(n3)C(F)(F)CC4)ccc2cn1)c1ccc2c(c1)S(=O)(=O)CCOC2 [Compound 678]
				58.9	7.89	465	Cc1cnc2c(c1)CCCN2c1ccc2cnc(CNC(=O)c3ccc4c(c3)S(=O)(=O)CCCO4)cc2n1 [Compound 514]

From patent US20230416248A1, “COMPOUNDS AND USES THEREOF” (Foghorn Therapeutics Inc., priority 2020, published 2023)
